This passage reports IC50 results from patent US10172843B2, “Piperidine derivatives” (Hoffmann-La Roche Inc., priority 2014, dated 2019).

As usually defined, the IC50 is the concentration that gives 50% inhibition.

human Cat S, sequence (P25774 115-331): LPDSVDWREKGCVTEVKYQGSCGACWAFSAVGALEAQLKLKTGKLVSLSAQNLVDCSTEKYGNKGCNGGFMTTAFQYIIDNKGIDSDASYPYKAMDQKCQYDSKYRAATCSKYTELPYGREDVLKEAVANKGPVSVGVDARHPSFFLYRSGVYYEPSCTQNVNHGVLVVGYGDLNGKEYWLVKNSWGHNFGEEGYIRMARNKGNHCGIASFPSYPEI

One experiment has as its target human Cat S (Homo sapiens (Human), UniProt P25774). Description: Cathepsin enzyme inhibition assay (fluorogenic peptide substrate). The experiment is classed as biochemical. To be noted: human Cat S, enzyme 1 nM, substrate Z-Val-Val-Arg-AMC, pH 6.5; read-out: CatS IC50. As to the method:
Cathepsin Enzyme Inhibition Assay
Enzyme activity is measured by observing the increase in fluorescence intensity caused by cleavage of a peptide substrate containing a fluorophore whose emission is quenched in the intact peptide.
Assay buffer: 100 mM potassium phosphate pH 6.5, EDTA-Na 5 mM, Triton X-100 0.001%, DTT 5 mM.
Enzymes (all at 1 nM): human and mouse Cathepsin S, Cat K, Cat B, Cat L.
Substrate ([…], except for Cat K which uses Z-Leu-Arg-AMC (both from Bachem).
Excitation 360 nm, Emission 465 nm.
Enzyme is added to the substance dilutions in 96-well microtitre plates and the reaction is started with substrate. […] IC50 are calculated by standard methods.
Inhibition of human Cat S, mouse Cat S, human Cat K, mouse Cat K, human Cat B, mouse Cat B, human Cat L and mouse Cat L have been measured separately.
Take `Cc1[nH]c(-c2ccc(C(F)(F)F)cc2)nc1CN1CCC(n2c(=O)n(C)c3cc(Cl)ccc32)CC1` [Example 18, 5-Chloro-3-methyl-1-{1-[5-methyl-2-(4-trifluoromethyl-phenyl)-1H-imidazol-4-ylmethyl]-piperidin-4-yl}-1,3-dihydro-benzoimidazol-2-one]: the half-inhibitory concentration (IC50) was found to be 195 nM.

As to `Cc1[nH]c(-c2ccc(C(F)(F)F)cc2)nc1CN1CCC(N2Cc3ccc(F)cc3NC2=O)CC1` [Example 25, 7-Fluoro-3-{1-[5-methyl-2-(4-trifluoromethyl-phenyl)-1H-imidazol-4-ylmethyl]-piperidin-4-yl}-3,4-dihydro-1H-quinazolin-2-one], the IC50 was 180 nM.

On to `CCn1c(=O)n(C2CCN(Cc3nc(-c4ccc(C(F)(F)F)cc4)[nH]c3C)CC2)c2ccc(Cl)cc21` [Example 26, 5-Chloro-3-ethyl-1-{1-[5-methyl-2-(4-trifluoromethyl-phenyl)-1H-imidazol-4-ylmethyl]-piperidin-4-yl}-1,3-dihydro-benzoimidazol-2-one], for which the IC50 worked out at 150 nM.

For `COCCn1c(=O)n(C2CCN(Cc3nc(-c4ccc(C(F)(F)F)cc4)[nH]c3C)CC2)c2ccc(Cl)cc21` [Example 27, 5-Chloro-3-(2-methoxy-ethyl)-1-{1-[5-methyl-2-(4-trifluoromethyl-phenyl)-1H-imidazol-4-ylmethyl]-piperidin-4-yl}-1,3-dihydro-benzoimidazol-2-one], the IC50 came out at 220 nM.

Turning to `Cc1[nH]c(-c2ccc(C(F)(F)F)cc2)nc1CN1CCC(N2Cc3ccccc3NC2=O)CC1` [Example 28, 3-{1-[5-Methyl-2-(4-trifluoromethyl-phenyl)-1H-imidazol-4-ylmethyl]-piperidin-4-yl}-3,4-dihydro-1H-quinazolin-2-one], the IC50 came out at 190 nM.

In the case of `CC(=O)OCCn1c(=O)n(C2CCN(Cc3nc(-c4ccc(C(F)(F)F)cc4)[nH]c3C)CC2)c2ccc(Cl)cc21` [Example 29, Acetic acid 2-(6-chloro-3-{1-[5-methyl-2-(4-trifluoromethyl-phenyl)-1H-imidazol-4-ylmethyl]-piperidin-4-yl}-2-oxo-2,3-dihydro-benzoimidazol-1-yl)-ethyl ester], the IC50 is 280 nM.

Consider `Cc1[nH]c(-c2ccc(C(F)(F)F)cc2)nc1CN1CCC(n2c(=O)n(CCO)c3cc(Cl)ccc32)CC1` [Example 30, 5-Chloro-3-(2-hydroxy-ethyl)-1-{1-[5-methyl-2-(4-trifluoromethyl-phenyl)-1H-imidazol-4-ylmethyl]-piperidin-4-yl}-1,3-dihydro-benzoimidazol-2-one], for which the IC50 was determined as 230 nM.

As for `Cc1[nH]c(-c2ccc(C(F)(F)F)cc2)nc1CN1CCC(n2c(=O)n(CC(N)=O)c3cc(Cl)ccc32)CC1` [Example 31, 2-(6-Chloro-3-{1-[5-methyl-2-(4-trifluoromethyl-phenyl)-1H-imidazol-4-ylmethyl]-piperidin-4-yl}-2-oxo-2,3-dihydro-benzoimidazol-1-yl)-acetamide], the IC50 amounted to 310 nM.

On to `CNC(=O)Cn1c(=O)n(C2CCN(Cc3nc(-c4ccc(C(F)(F)F)cc4)[nH]c3C)CC2)c2ccc(Cl)cc21` [Example 32, 2-(6-Chloro-3-{1-[5-methyl-2-(4-trifluoromethyl-phenyl)-1H-imidazol-4-ylmethyl]-piperidin-4-yl}-2-oxo-2,3-dihydro-benzoimidazol-1-yl)-N-methyl-acetamide], for which the IC50 is 330 nM.

For `COC(=O)Cn1c(=O)n(C2CCN(Cc3nc(-c4ccc(C(F)(F)F)cc4)[nH]c3C)CC2)c2ccc(Cl)cc21` [Example 33, (6-Chloro-3-{1-[5-methyl-2-(4-trifluoromethyl-phenyl)-1H-imidazol-4-ylmethyl]-piperidin-4-yl}-2-oxo-2,3-dihydro-benzoimidazol-1-yl)-acetic acid methyl ester], the IC50 stood at 130 nM.

`Cc1[nH]c(-c2ccc(C(F)(F)F)cc2)nc1CN1CCC(n2c(=O)n(CC(=O)O)c3cc(Cl)ccc32)CC1` [Example 34, (6-Chloro-3-{1-[5-methyl-2-(4-trifluoromethyl-phenyl)-1H-imidazol-4-ylmethyl]-piperidin-4-yl}-2-oxo-2,3-dihydro-benzoimidazol-1-yl)-acetic acid]: the IC50 is 930 nM.

Regarding `Cc1[nH]c(-c2ccc(C(F)(F)F)cc2)nc1CN1CCC(n2c(=O)n(CCS(C)(=O)=O)c3cc(Cl)ccc32)CC1` [Example 35, 5-Chloro-3-(2-methanesulfonyl-ethyl)-1-{1-[5-methyl-2-(4-trifluoromethyl-phenyl)-1H-imidazol-4-ylmethyl]-piperidin-4-yl}-1,3-dihydro-benzoimidazol-2-one], the IC50 was determined as 257 nM.

In the case of `Cc1[nH]c(-c2ccc(C(F)(F)F)cc2)nc1CN1CCC(c2c[nH]c3ccccc23)CC1` [Example 36, 3-{1-[5-Methyl-2-(4-trifluoromethyl-phenyl)-1H-imidazol-4-ylmethyl]-piperidin-4-yl}-1H-indole], the IC50 amounted to 770 nM.

As for `Cc1[nH]c(-c2ccc(C(F)(F)F)cc2)nc1CN1CCC(c2noc3cc(F)ccc23)CC1` [Example 37, 6-Fluoro-3-{1-[5-methyl-2-(4-trifluoromethyl-phenyl)-1H-imidazol-4-ylmethyl]-piperidin-4-yl}-benzo[d]isoxazole], the IC50 turned out to be 595 nM.

Consider `Cc1[nH]c(-c2ccc(C(F)(F)F)cc2)nc1CN1CCC(c2c[nH]c3ncccc23)CC1` [Example 38, 3-{1-[5-Methyl-2-(4-trifluoromethyl-phenyl)-1H-imidazol-4-ylmethyl]-piperidin-4-yl}-1H-pyrrolo[2,3-b]pyridine], for which the IC50 came out at 470 nM.

Take `Cc1[nH]c(-c2ccc(C(F)(F)F)c(Cl)c2)nc1CN1CCC(n2c(=O)n(C)c3ccccc32)CC1` [Example 39, 1-{1-[2-(3-Chloro-4-trifluoromethyl-phenyl)-5-methyl-1H-imidazol-4-ylmethyl]-piperidin-4-yl}-3-methyl-1,3-dihydro-benzoimidazol-2-one]: the IC50 was determined as 242 nM.

On to `Cc1[nH]c(-c2ccc(C(F)(F)F)c(Cl)c2)nc1CN1CCC(N2Cc3ccccc3NC2=O)CC1` [Example 40, 3-{1-[2-(3-Chloro-4-trifluoromethyl-phenyl)-5-methyl-1H-imidazol-4-ylmethyl]-piperidin-4-yl}-3,4-dihydro-1H-quinazolin-2-one], for which the IC50 came to 77 nM.

On to `Cc1[nH]c(-c2ccc(Cl)c(Cl)c2)nc1CN1CCC(N2Cc3ccccc3NC2=O)CC1` [Example 42, 3-{1-[2-(3,4-Dichloro-phenyl)-5-methyl-1H-imidazol-4-ylmethyl]-piperidin-4-yl}-3,4-dihydro-1H-quinazolin-2-one], for which the IC50 stood at 287 nM.

Staying with this experiment, now noted: read-out: CatS IC50.
Take `Cc1[nH]c(-c2ccc(C(F)(F)F)cc2)nc1CN1CCC(N2C(=O)COc3ccccc32)CC1` [Example 19, 4-{1-[5-Methyl-2-(4-trifluoromethyl-phenyl)-1H-imidazol-4-ylmethyl]-piperidin-4-yl}-4H-benzo[1,4]oxazin-3-one]: the IC50 amounted to 470 nM.

With `Cc1[nH]c(-c2ccc(C(F)(F)F)cc2)nc1CN1CCC(N2C(=O)Cc3cc(Cl)ccc32)CC1` [Example 43, 5-Chloro-1-{1-[5-methyl-2-(4-trifluoromethyl-phenyl)-1H-imidazol-4-ylmethyl]-piperidin-4-yl}-1,3-dihydro-indol-2-one], the half-maximal inhibitory concentration (IC50) came to 445 nM.
